This is an account of results in patent US6881741B2 (ViroChem Pharma Inc., priority 2001, dated 2005).

Structures can show the parent of a compound that is named as a salt. Some results are limits rather than exact numbers.

Chain of recombinant HCV NS5B (HCV RNA-dependent RNA polymerase) (P26663 2420-3010 limits assumed): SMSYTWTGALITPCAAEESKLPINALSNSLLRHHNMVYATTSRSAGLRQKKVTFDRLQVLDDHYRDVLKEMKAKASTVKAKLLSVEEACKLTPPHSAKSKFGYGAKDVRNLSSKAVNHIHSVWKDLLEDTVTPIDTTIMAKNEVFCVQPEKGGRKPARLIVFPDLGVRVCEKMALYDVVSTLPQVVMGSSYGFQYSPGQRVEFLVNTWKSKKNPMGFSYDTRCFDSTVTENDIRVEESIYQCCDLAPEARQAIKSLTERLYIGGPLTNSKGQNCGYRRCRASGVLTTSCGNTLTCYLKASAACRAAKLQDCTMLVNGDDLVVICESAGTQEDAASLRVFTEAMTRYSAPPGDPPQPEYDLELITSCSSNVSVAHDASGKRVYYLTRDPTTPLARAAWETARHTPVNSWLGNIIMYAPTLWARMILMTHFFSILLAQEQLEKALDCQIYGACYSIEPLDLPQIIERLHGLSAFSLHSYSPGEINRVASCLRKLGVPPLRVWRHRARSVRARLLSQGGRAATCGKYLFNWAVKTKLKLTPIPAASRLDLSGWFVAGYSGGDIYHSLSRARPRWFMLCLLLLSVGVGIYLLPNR

One experiment has as its target recombinant HCV NS5B (HCV RNA-dependent RNA polymerase) (Hepatitis C virus genotype 1b, UniProt P26663). Put plainly: biochemical. As to conditions: HCV polymerase activity, list of compounds of Example 27; read-out: IC50 (polymerase activity).
What is called IC50 is the point on the concentration scale where inhibition reaches its midpoint. Regarding `CC1CCC(C(=O)N(c2cc(-c3ccccc3)sc2C(=O)O)C2COC(C)(C)OC2)CC1` (centres unmarked) [Compound 517, 3-[(2,2-DIMETHYL-[1,3]DIOXAN-5-YL)-(4- METHYL-CYCLOHEXANECARBONYL)- AMINO]-5-PHENYL-THIOPHENE-2- CARBOXYLIC ACID], the IC50 was < 5 µM. For `CC(C)CC(=O)N(Cc1ccc([N+](=O)[O-])cc1)c1cc(-c2ccccc2)sc1C(=O)O` [Compound 419, 3-[(3-METHYL-BUTYRYL)-(4-NITRO- BENZYL)-AMINO]-5-PHENYL-THIOPHENE- 2-CARBOXYLIC ACID], the IC50 is < 5 µM. As for `CCC(=O)N(Cc1ccc([N+](=O)[O-])cc1)c1cc(-c2ccccc2)sc1C(=O)O` [Compound 418, 3-[(4-NITRO-BENZYL)-PROPIONYL- AMINO]-5-PHENYL-THIOPHENE-2- CARBOXYLIC ACID], the IC50 fell in the range of 5 to 20 µM. As to `CC(C[NH3+])N(C(=O)c1ccc(Cl)cc1Cl)c1cc(-c2ccccc2)sc1C(=O)O` (centres unmarked) [Compound 546, 2-[(2-CARBOXY-5-PHENYL-THIOPHEN-3- YL)-(2,4-DICHLORO-BENZOYL)-AMINO]- PROPYL-AMINE TRIFLUOROACETIC ACID SALT], the IC50 is < 5 µM. In the case of `O=C(O)c1sc(-c2ccccc2)cc1N(Cc1ccc(C(F)(F)F)cc1)C(=O)CC1CCCC1` [Compound 416, 3-[(2-CYCLOPENTYL-ACETYL)-(4- TRIFLUOROMETHYL-BENZYL)-AMINO]-5- PHENYL-THIOPHENE-2-CARBOXYLIC ACID], the 50% inhibitory concentration (IC50) lay in the range of 5 to 20 µM. For the molecule `Cc1ccc(CN(C(=O)C(C)C)c2cc(-c3ccccc3)sc2C(=O)O)cc1` [Compound 468, 3-[ISOBUTYRYL-(4-METHYL-BENZYL)- AMINO]-5-PHENYL-THIOPHENE-2- CARBOXYLIC ACID], the IC50 lay within 5 to 20 µM. On the same count and under the same terms, in the case of `CCC(=O)N(Cc1ccc(Cl)cc1)c1cc(-c2ccccc2)sc1C(=O)O` [Compound 456, 3-[(4-CHLORO-BENZYL)-PROPIONYL- AMINO]-5-PHENYL-THIOPHENE-2- CARBOXYLIC ACID] it was < 5 µM; in that of `CC(C)C(=O)N(Cc1ccccc1Cl)c1cc(-c2ccccc2)sc1C(=O)O` [Compound 421, 3-[(2-CHLORO-BENZYL)-ISOBUTYRYL- AMINO]-5-PHENYL-THIOPHENE-2- CARBOXYLIC ACID], 5 to 20 µM; in that of `CCCC(=O)N(Cc1ccc(Cl)cc1)c1cc(-c2ccccc2)sc1C(=O)O` [Compound 462, 3-[BUTYRYL-(4-CHLORO-BENZYL)- AMINO]-5-PHENYL-THIOPHENE-2- CARBOXYLIC ACID], 5 to 20 µM. Still for that read-out and setting: as for `O=C(O)c1sc(-c2ccccc2)cc1N(Cc1ccc(Cl)cc1)C(=O)C1CCC1` [Compound 461, 3-[(4-CHLORO-BENZYL)- CYCLOBUTANECARBONYL-AMINO]-5- PHENYL-THIOPHENE-2-CARBOXYLIC ACID], the figure is 5 to 20 µM; as for `Cc1ccc(C(=O)N(c2cc(-c3cccc(C(F)(F)F)c3)sc2C(=O)O)C(C)C)c(OCc2ccccc2)c1` [Compound 406, 3-[(2-BENZLOXY-4-METHYL-BENZOYL)- ISOPROPYL-AMINO]-5-(3- TRIFLUOROMETHYL-PHENYL)- THIOPHENE-2-CARBOXYLIC ACID], < 5 µM.

Staying with this experiment, now noted: related polymerase activity (Example 27 list); read-out: IC50.
As for `Cc1ccc(-c2cc(NS(=O)(=O)c3ccc(F)cc3F)c(C(=O)O)s2)cc1` [Compound 119, 3-(2,4-DIFLUORO-BENZENESULFONYLAMINO)-5-P-TOLYL-THIOPHENE-2-CARBOXYLIC ACID], the IC50 is < 5 µM. As to `Cc1ccc(S(=O)(=O)Nc2cc(-c3ccc(S(C)(=O)=O)cc3)sc2C(=O)O)c(C)c1` [Compound 321, 3-(2,4-DIMETHYL- BENZENESULFONYLAMINO)-5-(4- METHANESULFONYL-PHENYL)- THIOPHENE-2-CARBOXYLIC ACID], the IC50 is < 5 µM. As to `Cc1ccc(C(=O)N(C)c2cc(-c3cccc(C)c3)sc2C(=O)O)cc1` [Compound 268, 3-[METHYL-(4-METHYL-BENZOYL)-AMINO]-5-M-TOLYL-THIOPHENE-2-CARBOXYLIC ACID], the IC50 is < 5 µM. As for `Cc1ccc(C(=O)N(C)c2cc(-c3ccc(F)c(F)c3)sc2C(=O)O)cc1` [Compound 270, 5-(3,4-DIFLUORO-PHENYL)-3-[METHYL-(4-METHYL-BENZOYL)-AMINO]-THIOPHENE-2-CARBOXYLIC ACID], the IC50 is < 5 µM. For `CC(C)N(C(=O)c1ccc(Cl)cc1I)c1cc(-c2ccccc2)sc1C(=O)O` [Compound 310, 3-[(4-CHLORO-2-IODO-BENZOYL)- ISOPROPYL-AMINO]-5-PHENYL- THIOPHENE-2-CARBOXYLIC ACID], the IC50 was < 5 µM. Same read-out and setting: as for `O=C(O)c1sc(-c2ccccc2)cc1N(Cc1ccc(-c2cccc(C(F)(F)F)c2)o1)C(=O)c1ccc(Cl)cc1Cl` [Compound 4, 3-{(2,4-DICHLORO-BENZOYL)-[5-(3-TRIFLUOROMETHYL-PHENYL)-FURAN-2-YLMETHYL]-AMINO}-5-PHENYL-THIOPHENE-2-CARBOXYLIC ACID], the figure is < 5 µM; as for `Cc1ccc(S(=O)(=O)Nc2cc(-c3ccc(F)cc3)sc2C(=O)O)cc1` [Compound 6, 5-(4-FLUORO-PHENYL)-3-(TOLUENE-4-SULFONYLAMINO)-THIOPHENE-2-CARBOXYLIC ACID], < 5 µM. Turning to `CCN(C(=O)CCC1CCCC1)c1cc(-c2ccccc2)sc1C(=O)O` [Compound 392, 3-[(3-CYCLOPENTYL-PROPIONYL)- ETHYL-AMINO]-5-PHENYL-THIOPHENE-2- CARBOXYLIC ACID], the IC50 was < 5 µM.

Turning to `Cc1cccc(-c2cc(N(C(=O)c3ccc(Cl)cc3Cl)C(C)C)c(C(=O)O)s2)c1` [Compound 357, 3-[(2,4-DICHLORO-BENZOYL)- ISOPROPYL-AMINO]-5-M-TOLYL- THIOPHENE-2-CARBOXYLIC ACID], the IC50 was < 5 µM. Turning to `Cc1ccc(C(=O)N(C)c2cc(-c3ccc(OC(F)(F)F)cc3)sc2C(=O)O)cc1` [Compound 216, 3-[METHYL-(4-METHYL-BENZOYL)-AMINO]-5-(4-TRIFLUOROMETHOXY-PHENYL)-THIOPHENE-2-CARBOXYLIC ACID], the IC50 was 5 to 20 µM. `Cc1cc(S(=O)(=O)N(Cc2cccc(-c3cc4ccccc4o3)c2)c2cc(-c3ccccc3)sc2C(=O)O)c(C)cc1Cl` [Compound 2, 3-[(3-BENZOFURAN-2-YL-BENZYL)-(4-CHLORO-2,5-DIMETHYL-BENZENESULFONYL)-AMINO]-5-PHENYL-THIOPHENE-2-CARBOXYLIC ACID]: the IC50 lay within 5 to 20 µM. For `CCCN(C(=O)c1ccc(C)cc1)c1cc(-c2cccc(CCC(=O)O)c2)sc1C(=O)O` [Compound 325, 5-[3-(2-CARBOXY-ETHYL)-PHENYL]-3-[(4- METHYL-BENZOYL)-PROPYL-AMINO]- THIOPHENE-2-CARBOXYLIC ACID], the IC50 fell in the range of 5 to 20 µM. On the same count and under the same terms, in the case of `COc1ccc(N2CCN(C(=O)Nc3cc(-c4ccccc4)sc3C(=O)O)CC2)cc1` [Compound 181, 3-{[4-(4-METHOXY-PHENYL)-PIPERAZINE-1-CARBONYL]-AMINO}-5-PHENYL-THIOPHENE-2-CARBOXYLIC ACID] it was 5 to 20 µM; in that of `Cc1ccc(C(=O)N(C)c2cc(-c3ccccc3)sc2C(=O)O)c(F)c1F` [Compound 280, 3-[(2,3-DIFLUORO-4-METHYL-BENZOYL)-METHYL-AMINO]-5-PHENYL-THIOPHENE-2-CARBOXYLIC ACID], < 5 µM; in that of `COc1cc(C)ccc1S(=O)(=O)Nc1cc(-c2ccccc2)sc1C(=O)O` [Compound 142, 3-(2-METHOXY-4-METHYL-BENZENESULFONYLAMINO)-5-PHENYL-THIOPHENE-2-CARBOXYLIC ACID], 5 to 20 µM.
